Reference: PubChem BioAssay (NCI)
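Method: 48-hour compound exposure of cells in 96-well plates, five concentrations, linear interpolation of endpoints. Definition used: TGI = concentration required for complete inhibition of growth.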

Legend:
Assay in all cases: growth of human tumour cells (NCI), 48 h
[1] = system: CCRF-CEM leukemia
[2] = system: NCI-H23 lung
[3] = system: 786-0 renal
[4] = system: OVCAR-5 ovarian
[5] = system: M14 melanoma
[6] = system: SNB-19 CNS
[7] = system: HT29 colon
[8] = system: CAKI-1 renal
[9] = system: A498 renal
[10] = system: UO-31 renal
[11] = system: A549 NSCLC
[12] = system: PC-3 prostate
[13] = system: DU-145 prostate
[14] = system: SK-MEL-5 melanoma
[15] = system: SR leukemia
[16] = system: SF-268 CNS
[17] = system: EKVX NSCLC
[18] = system: SF-539 CNS
[19] = system: KM12 colon

SMILES	TGI [1] [µM]	TGI [2] [µM]	TGI [3] [µM]	TGI [4] [µM]	TGI [5] [µM]	TGI [6] [µM]	TGI [7] [µM]	TGI [8] [µM]	TGI [9] [µM]	TGI [10] [µM]	TGI [11] [µM]	TGI [12] [µM]	TGI [13] [µM]	TGI [14] [µM]	TGI [15] [µM]	TGI [16] [µM]	TGI [17] [µM]	TGI [18] [µM]	TGI [19] [µM]
CN(C)CCNC(=O)c1ccc(NCCCN(C)CCCNc2ccc(C(=O)NCCN(C)C)c3[nH]c4ccc([N+](=O)[O-])cc4c(=O)c23)c2c(=O)c3cc([N+](=O)[O-])ccc3[nH]c12	0.145	0.537	1.14	1.71	2.09	0.649	1.02	3.75	0.537	2.01	0.64	0.535	0.641	1.14	1.91				
CC1=C(C(=O)NCC(C)O)CC(C(=O)NCC(C)O)=C(C)N1 (stereo not drawn)	> 100	> 100	> 100	> 100	> 100	> 100	> 100	> 100		> 100	> 100	> 100	> 100	> 100	> 100	> 100	> 100	> 100	> 100
O=S(=O)(O)c1ccc2c(N=Nc3ccccc3Cl)c(O)ccc2c1	> 100	> 100	> 100	> 100	> 100	> 100	> 100	> 100	> 100	> 100	> 100	> 100	> 100	> 100	> 100	> 100	> 100		> 100
COc1ccc2c(c1)CCCN1CCc3cc(OC)c(OC)cc3C21 (stereo not drawn)	> 100		> 100	> 100	> 100	> 100	> 100	> 100		> 100	> 100	> 100	> 100	> 100	> 100	> 100	> 100	> 100	> 100
OCCN=C1c2ccccc2C2C(c3ccccc31)C1c3ccccc3C(=NCCO)c3ccccc3C21 (stereo not drawn)	35.9	> 100	47.2	60.7	42.3	41.4	34.8	39.5		32.6	93	53.8	54.3	35.2	28.9	> 100	> 100	36.5	44
O=C1/C(=C/c2cccs2)NC(=S)N1CN1CCOCC1	> 100	> 100	> 100	> 100	> 100	> 100	> 100		> 100	> 100	> 100	> 100	> 100	> 100	> 100	> 100	> 100		> 100
O=C(NCCCCNCCCNC(=O)c1cc(-c2ccccc2)nc2ccccc12)c1cc(-c2ccccc2)nc2ccccc12		4.02	3.03				3.1	3.82		3.21	3.01	2.98	3.8	2.75	6.09		3.52	3.81	
CCOC(=O)c1cc(=O)oc2c1N(C)c1ncccc1N2		> 100	> 100	> 100	> 100	> 100		> 100	> 100	> 100	> 100	> 100	> 100		> 100	> 100			> 100
COC(OC)(c1ccccc1)C(I)I	22.7	50.7	21.5	33.1	15.2	> 71	34.9	24.1		29.8	43.6	30.7	> 67.7	21.9	> 45.7	46.1	16.9	17.6	40.1
COc1cc2c3c(n(Cc4ccccc4)c(=O)c2cc1OC)-c1ccccc1C3=O	> 100	> 100	> 100	> 100	> 100	> 100	> 100	> 100		> 100	> 100	> 100	> 100	> 100	> 100	> 100	> 100	> 100	> 100
COc1ccc(CCc2ccc(O)c(C(=O)O)c2)cc1OC	> 100	> 100	> 100	> 100	> 100	> 100	> 100	> 100		> 100	> 100	> 100	> 100	> 100	> 100	> 100	> 100	> 100	> 100
